What all share (experiment): ≥ marks a high value that may be exact or a test limit, other limits are often not marked, values filed in µg/mL are converted to µM
For assay [1], the system named is Pseudomonas fluorescens biotype I W81-11.
For assay [2], the system named is Vibrio anguillarum E-3-11.
Assay [3] concerns Aeromonas intestinalis 58209.
Assay [4] has as its system Aeromonas hydrophila 12.
In assay [5] the test system is Yersinia ruckeri SC90-2-4.
Assay [6] has as its system Flavobacterium columnare G4.
For assay [7], the system named is Vibrio anguillarum SGL 8542.
The test system of assay [8] is Escherichia coli DH5alpha.
Assay [9] deals with Aeromonas sobria CR79-1-1.
In assay [10] the test system is Pseudomonas fluorescens 56-12-10.
Assay [11] relates to Pseudomonas putida ATCC 17426.
Assay [12] has as its system Staphylococcus aureus ATCC 15752.
Assay [13] has as its system Cryptococcus neoformans ATCC 34881.
Assay [14] relates to Streptococcus mutans ATCC 25175.
The test system of assay [15] is Candida albicans ATCC 10231.
Assay [16] relates to Saccharomyces cerevisiae ATCC 44774.
In assay [17] the test system is Bacillus subtilis ATCC 62037.
For assay [18], the system named is Escherichia coli ATCC 27325.
Assay [19] deals with Salmonella enterica subsp. enterica serovar Enteritidis ATCC 13076.

Values after ≈ are worked out from the molar mass of the structure shown. Some results are limits rather than exact numbers.

In the case of `CC[C@H](C)[C@H](N)C(=O)N[C@@H](Cc1ccccc1)C(=O)N[C@@H](Cc1cnc[nH]1)C(=O)N[C@@H](Cc1cnc[nH]1)C(=O)N[C@H](C(=O)N[C@@H](Cc1ccccc1)C(=O)N[C@@H](CCCCN)C(=O)NCC(=O)N[C@H](C(=O)N[C@H](C(=O)N[C@@H](Cc1cnc[nH]1)C(=O)N[C@H](C(=O)NCC(=O)N[C@@H](CCCCN)C(=O)N[C@H](C(=O)N[C@H](C(=O)N[C@@H](Cc1cnc[nH]1)C(=O)N[C@@H](CCCN=C(N)N)C(=O)N[C@@H](CC(C)C)C(=O)N[C@H](C(=O)N[C@H](C(=O)NCC(N)=O)[C@@H](C)O)C(C)C)[C@@H](C)CC)[C@@H](C)O)C(C)C)C(C)C)[C@@H](C)CC)[C@@H](C)CC` [IFHHIFKGIVHVGKTIHRLVTG], the MIC was 14.1 µM (≈ 35.5 µg/mL) in assay [1]; 28.3 µM (≈ 71 µg/mL) in [2]; 14.1 µM (≈ 35.5 µg/mL) in assay [3]; not below 160 µM in [4]; 28.3 µM (≈ 71 µg/mL) in assay [5]; not below 56.6 µM in [6]. Also, the MIC was not below 56.6 µM in [7], 7.07 µM (≈ 17.7 µg/mL) in assay [8], 14.1 µM (≈ 35.5 µg/mL) in assay [9] and 14.1 µM (≈ 35.5 µg/mL) in assay [10].
In the case of `CC(C)[C@H](NC(=O)[C@H](CCCCN)NC(=O)CNC(=O)CNC(=O)[C@H](CCC(N)=O)NC(=O)[C@H](CCCCN)NC(=O)CNC(=O)[C@H](CCCN=C(N)N)NC(=O)CNC(=O)[C@@H](N)CCCCN)C(=O)N[C@@H](CCCN=C(N)N)C(=O)N[C@@H](C)C(=O)N[C@@H](CCCCN)C(=O)N[C@@H](C)C(=O)O` [KGRGKQGGKVRAKA], the MIC in assay [11] is not below 44.4 µM; in [12], not below 88.8 µM; in assay [13], not below 88.8 µM; in assay [14], not below 88.8 µM; in assay [15], more than 88.8 µM; in [16], not below 88.8 µM. Moreover, the minimum inhibitory concentration (MIC) in assay [17] is not below 44.4 µM; in [18] it was not below 88.8 µM; in [19] it was not below 88.8 µM.
